Counter-ions that a name gives are not always drawn.

The text below walks through data of patent publication US6277882A, “Utilization of alkyl hydrogen fumarates for treating psoriasis, psoriatic arthritis, neurodermatitis and regional enteritis” (priority 1998, dated 2001).

The conditions of data set [1]: high dosages; parenteral, dermal and particularly oral route; cited from earlier work.
Data set [2] in a line: Pharmaceutical equivalency: comparison of pharmacokinetic data (methyl hydrogen fumarate level). Particulars: rat, in vivo, 100 mg/kg, dosage 100 mg/kg body-wt.
The next data set deals with phosphoslipase A2. Particulars: cited from earlier work.
Data set [3] has as its system toxic effects of Mitomycin C and Aflatoxin. Particulars: cited from earlier work.
The test system of another data set is psoriasis. Particulars: cited from earlier work.
For a further data set, the system named is Ehrlich ascites tumour. Particulars: mice; cited from earlier work.
The next data set concerns microbes. Particulars: cited from earlier work.
The next data set in a line: in vivo. Particulars: rat, oral administration; for LD50: in vivo, po. How it is done: Before the clinical trial, the acute toxicity of methyl hydrogen fumarate was tested by oral administration to rats.
Acute toxicity on rats (oral administration)

For the compound `NC(=O)/C=C/C(N)=O` [fumaramide], the “rate of side effects and toxicity” value in data set [1] was “unacceptable rate of side effects and high toxicity”.

As to `COC(=O)/C=C/C(=O)O.[Ca]` [Methyl hydrogen fumarate calcium salt], the Cmax in data set [2] (female) worked out at 107 µg/mL; in data set [2] (male) it was 51.3 µg/mL.

Regarding `O=C(O)/C=C/C(=O)O` [fumaric acid], the “stimulation of phosphoslipase A2” value in the data set on phosphoslipase A2 was “stimulated”. Further, the “toxic effects of Mitomycin C and Aflatoxin” value in data set [3] was “reduces the toxic effects of Mitomycin C and Aflatoxin”. In the data set with psoriasis, the anti-psoriatic effect entry is “anti-psoriatic”. Moreover, the “growth of the Ehrlich ascites tumour” value in the data set on Ehrlich ascites tumour is recorded as “inhibits the growth of the Ehrlich ascites tumour in mice”. Also, the antimicrobial effect entry in the data set on microbes is reported as “antimicrobial effect”.

As to `N#C/C=C/C#N` [fumaronitrile], the “rate of side effects and toxicity” value in data set [1] is “unacceptable rate of side effects and high toxicity”.

Regarding `O=C(O)/C(O)=C(\O)C(=O)O` [dihydroxy fumaric acid], in data set [1], the “rate of side effects and toxicity” value is “unacceptable rate of side effects and high toxicity”.

As for `COC(=O)/C=C/C(=O)O` [Methyl hydrogen fumarate, methyl hydrogen fumarate], the results for the Cmax in data set [2] (female) and in data set [2] (male) were 84.8 µg/mL and 69.9 µg/mL, respectively. Also, the LD50 in the data set “in vivo” (female) amounted to 1780 mg/kg; in “in vivo” (male), 2610 mg/kg. Moreover, the “Lowest lethal dose in mg/kg” value in the data set “in vivo” (female) is 1,470.0 mg/kg; in “in vivo” (male), 2,150.0 mg/kg.

By Cmax is commonly meant the peak of the concentration-time curve. Broadly, the LD50 is the dose at which mortality reaches 50%.
